Where “and” joins values, the source holds several entries; their conditions need not be identical. Identical values can stand only once. Like-named read-outs stand apart in the source and are kept apart here.
How the values were obtained:
[1] = system: SET-2 AML cell line (FLAG-CDK8 WT vs FLAG-CDK8-W105M); experiment: CDK8 W105M versus wild type SET-2 cell competition (flow cytometry); type: cell-based; details: after 3 days and 7 days of treatment
Description: Compounds A, B, C, and D inhibit SET-2 AML cell line proliferation by inhibiting CDK8. ZsGreen (Clontech) and FLAG-CDK8 WT (wild type) or mCherry (Clontech) and FLAG-CDK8-W105M were expressed in SET 2 cells. The cells were mixed, the ratio of red to green fluorescence was determined by flow cytometry, and the cells were treated with the indicated compounds. After 3 days and 7 days of treatment, the ratio of red to green fluorescent cells was determined.

CDK8 = CDK8 (Homo sapiens, UniProt P49336); experiment: CDK8 IC50 determination (Example 9); type: biochemical
hERG potassium channel = hERG potassium channel (Homo sapiens, UniProt Q12809); experiment: in vitro; details: human
Description: (§1) The in vitro effects of compounds A, B, C, D, E, and F on the hERG (human ether-à-go-go-related gene) potassium channel current (a surrogate for IKr, the rapidly activating, delayed rectifier cardiac potassium current) expressed in mammalian cells were evaluated at room temperature using the QPatch HT (Sophion Bioscience A/S, Denmark), an automatic parallel patch clamp system. The test articles were evaluated at 1 μM, 3 μM, […] and 30 μM. Each test article concentration was tested in at least three cells. The duration of exposure to each test article concentration was a minimum of 3 minutes.

[2] = target: hERG (human ether-à-go-go-related gene) potassium channel (Homo sapiens, UniProt Q12809); experiment: cell-based; details: for IC50: hERG IC50, QPatch HT, room temperature
Description: as §1

off-targets (Panlabs) = experiment: Panlab off-target assay panel; type: binding; details: 10 μM; for number of targets with ≥75% inhibition: Safety Panel = 28 binding assays (Eurofins Panlabs)
Description: (§2) Compounds A, B, C, and D were tested in Panlab assays to evaluate potential off-target activity using standard assay kits. Methods employed in these studies have been adapted from the scientific literature to maximize reliability and reproducibility. Reference standards were run as an integral part of each assay to ensure the validity of the results obtained.
IC50 values were determined by a non-linear, least squares regression analysis using MathIQ™ (ID Business Solutions Ltd., UK). Where inhibition constants (Ki) are presented, the Ki values were calculated using the equation of Cheng and Prusoff (Cheng, Y., Prusoff, W. H., Biochem. Pharmacol. 22:3099-3108, 1973) using the observed IC50 of the tested compound, the concentration of radioligand employed in the assay, and the historical values for the KD of the ligand (obtained experimentally at Eurofins Panlabs, Inc.). Where presented, the Hill coefficient (nH), defining the slope of the competitive binding curve, was calculated using MathIQ™.

MKPL1 = experiment: Half-maximal growth inhibition (GI50), MKPL1; type: cell-based; details: Homo sapiens, 240 h, AML, M7, read-out: GI50 (nM), day 10
Description: (§3) Compounds A, B, C, D, and F were tested against various cell lines to probe their broad utility against cancer. Cortistatin A (CA) was also tested against the cell lines in a head to head fashion.

[3] = TurboSol solubility evaluation in physiological saline; type: physicochemical; details: HB-PS+0.3% DMSO
sodium channel = experiment: Panlab sodium channel assay; type: binding; details: 10 μM
Description: as §2
Compound B was tested in a subset of 30 Panlab assays that included the hits from screening Compound F in addition to the Panlab hERG and sodium channel assay. This allows direct comparison of Compound B to Compound F in terms of off-target profile.

HEL = experiment: Half-maximal growth inhibition (GI50), HEL; type: cell-based; details: Homo sapiens, 240 h, AML, erythroleukemia, JAK2V617F, read-out: GI50 (nM), day 10
Description: as §3

[4] = Tolerability study of Compound A and Compound D (body weight); type: in vivo, female NSG mice; details: for initial loss in weight: 10 mg/kg dosing group (Compound A PO, Compound D IV), recovered after dosing holiday; for tolerability: doses at or below 3 mg/kg (Compound A PO, Compound D IV)
Description: Twenty-five female NSG mice were randomly assigned to various treatment groups as described in Table 11. All mice were treated for 7 days unless as indicated below.
On study days zero to six (seven doses), Compound A was administered via oral gavage in a volume of 10 mL/kg and Compound D was administered via intravenous injection into the lateral tail vein in a volume of 10 mL/kg. Body weights were recorded daily for fifteen days (days zero to fourteen) and animal health was assessed daily.
Mice were monitored clinically for signs of morbidity and for body weights daily. Mice showing signs of morbidity were euthanized as per study guidelines.

[5] = read-out: IC50 (nM) against CDK8, average
[6] = tested in duplicate, read-out: IC50 against CDK8, single determinations
[7] = Individual Data Points (% Inhibition), hERG

Chain of CDK8 (P49336 whole entry): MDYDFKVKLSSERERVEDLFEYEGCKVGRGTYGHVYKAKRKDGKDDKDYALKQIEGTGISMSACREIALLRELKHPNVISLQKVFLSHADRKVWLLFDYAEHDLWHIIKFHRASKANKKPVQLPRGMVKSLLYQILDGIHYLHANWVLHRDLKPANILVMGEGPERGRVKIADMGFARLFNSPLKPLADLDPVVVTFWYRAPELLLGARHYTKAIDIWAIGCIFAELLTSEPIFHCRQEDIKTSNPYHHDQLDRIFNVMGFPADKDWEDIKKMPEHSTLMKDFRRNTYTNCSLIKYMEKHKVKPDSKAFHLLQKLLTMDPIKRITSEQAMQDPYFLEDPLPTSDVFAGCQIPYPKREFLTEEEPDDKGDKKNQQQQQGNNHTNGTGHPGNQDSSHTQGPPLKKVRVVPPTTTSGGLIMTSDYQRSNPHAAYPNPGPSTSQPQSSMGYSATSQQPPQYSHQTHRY
Chain of CDK8 (P24863 whole entry partner): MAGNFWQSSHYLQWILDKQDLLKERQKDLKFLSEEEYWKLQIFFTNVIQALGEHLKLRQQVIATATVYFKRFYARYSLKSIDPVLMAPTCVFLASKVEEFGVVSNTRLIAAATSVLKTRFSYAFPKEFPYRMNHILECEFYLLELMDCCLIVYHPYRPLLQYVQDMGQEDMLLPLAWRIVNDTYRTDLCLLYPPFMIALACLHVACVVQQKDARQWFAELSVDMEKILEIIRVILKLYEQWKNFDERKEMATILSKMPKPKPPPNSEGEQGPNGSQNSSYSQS
Chain of hERG (human ether-à-go-go-related gene) potassium channel (Q12809 whole entry): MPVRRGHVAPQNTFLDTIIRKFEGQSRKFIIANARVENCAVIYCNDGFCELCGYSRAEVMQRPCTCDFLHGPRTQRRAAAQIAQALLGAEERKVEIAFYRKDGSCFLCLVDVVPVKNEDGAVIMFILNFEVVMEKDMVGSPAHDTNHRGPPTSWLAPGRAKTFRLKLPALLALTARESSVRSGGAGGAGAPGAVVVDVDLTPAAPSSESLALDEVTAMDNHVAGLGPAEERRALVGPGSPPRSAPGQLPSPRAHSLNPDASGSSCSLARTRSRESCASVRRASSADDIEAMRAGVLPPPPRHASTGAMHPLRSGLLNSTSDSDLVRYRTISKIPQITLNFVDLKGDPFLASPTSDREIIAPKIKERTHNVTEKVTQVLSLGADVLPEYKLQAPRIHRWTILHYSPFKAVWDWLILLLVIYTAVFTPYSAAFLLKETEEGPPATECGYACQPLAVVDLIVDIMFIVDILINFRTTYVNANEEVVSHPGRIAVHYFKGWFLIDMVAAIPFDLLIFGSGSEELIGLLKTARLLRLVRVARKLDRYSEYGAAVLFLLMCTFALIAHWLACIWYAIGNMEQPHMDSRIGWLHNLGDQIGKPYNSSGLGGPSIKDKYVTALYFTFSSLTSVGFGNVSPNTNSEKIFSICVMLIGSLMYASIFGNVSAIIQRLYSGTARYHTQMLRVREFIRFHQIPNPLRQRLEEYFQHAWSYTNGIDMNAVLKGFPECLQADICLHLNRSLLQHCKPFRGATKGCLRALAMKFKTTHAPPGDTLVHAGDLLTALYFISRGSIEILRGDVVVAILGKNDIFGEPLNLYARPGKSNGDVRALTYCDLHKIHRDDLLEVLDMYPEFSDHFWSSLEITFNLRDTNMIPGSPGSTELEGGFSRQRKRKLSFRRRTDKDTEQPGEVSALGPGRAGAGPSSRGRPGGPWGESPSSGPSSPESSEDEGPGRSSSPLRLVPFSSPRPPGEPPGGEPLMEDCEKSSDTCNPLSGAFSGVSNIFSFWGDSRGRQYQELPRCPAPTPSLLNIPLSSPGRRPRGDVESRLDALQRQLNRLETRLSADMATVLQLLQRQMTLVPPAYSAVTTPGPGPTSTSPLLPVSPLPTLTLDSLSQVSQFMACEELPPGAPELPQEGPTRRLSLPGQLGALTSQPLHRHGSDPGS
Chain of hERG potassium channel (Q12809 whole entry): as above

For `C[C@]12CC=C3C=C4CC[C@@H](N5CC[C@@H](N)C5)C[C@]45CC[C@]3(O5)[C@@H]1CC[C@@H]2c1ccc2ccncc2c1` [Compound B], the “ratio of red (CDK8 W105M) to green (wild type) fluorescent cells” value (“ratio of red (CDK8 W105M) to green” below) [1] was “dose-dependently shifted the ratio of red to green cells”, the IC50 (CDK8; [5]) was 9.1 nM and the IC50 (CDK8; [6]) was 5.5 nM and 12.7 nM. It also gave an inhibition at 1 µM (hERG potassium channel; [7]) of 5.4%, an inhibition at 3 µM (hERG potassium channel; [7]) of 17.1% and an inhibition at 30 µM (hERG potassium channel; [7]) of 89.4%. It also gave an inhibition at 1 µM (hERG potassium channel; Mean % hERG Inhibition) of 4.1%, an inhibition at 3 µM (hERG potassium channel; Mean % hERG Inhibition) of 18.9% and an inhibition at 10 µM (hERG potassium channel; Mean % hERG Inhibition) of 44.5%. For the same molecule, the inhibition at 30 µM (hERG potassium channel; Mean % hERG Inhibition) was 82.7%, the IC50 [2] was 10700 nM and the “fold less hERG activity than Compound E” value ([2]; human) was 10-100 fold. The “number of targets with ≥75% inhibition” value (off-targets (Panlabs)) was 8, the “number of targets with greater than 50% inhibition” value (off-targets (Panlabs); subset of 30 Panlab assays) was 8 and the GI50 (MKPL1) was 2 nM. For the same molecule, the “Average LSU (×1000)” value ([3]; 1 μM) was 2.2 LSU (×1000), the “Average LSU (×1000)” value ([3]; 3 μM) was 3.2 LSU (×1000) and the “Average LSU (×1000)” value ([3]; 10 μM) was 4.5 LSU (×1000). The “Average LSU (×1000)” value ([3]; 30 μM) was 8.6 LSU (×1000), the “solubility in the TurboSol assay” value [3] was “slightly insoluble at 30 μM concentrations” and the “% inhibition, Panlab sodium channel assay” value (sodium channel) was 65%. For the same molecule, the GI50 (HEL) was > 1000 nM.

In the case of `C[C@]12CC=C3C=C4CC[C@@H](N5C[C@H](O)[C@@H](O)C5)C[C@]45CC[C@]3(O5)[C@@H]1CC[C@@H]2c1ccc2ccncc2c1` [Compound D], the “ratio of red (CDK8 W105M) to green” value [1] is reported as “dose-dependently shifted the ratio of red to green cells”, the IC50 (CDK8; [5]) is reported as 6.4 nM and the IC50 (CDK8; [6]) is reported as 6.4 nM and 6.5 nM. The inhibition at 1 µM (hERG potassium channel; [7]) was 11.5%, the inhibition at 3 µM (hERG potassium channel; [7]) was 25.1% and the inhibition at 10 µM (hERG potassium channel; [7]) was 71.6%. It also gave an inhibition at 30 µM (hERG potassium channel; [7]) of 97.9%, an inhibition at 1 µM (hERG potassium channel; Mean % hERG Inhibition) of 8% and an inhibition at 3 µM (hERG potassium channel; Mean % hERG Inhibition) of 27.3%. For the same molecule, the inhibition at 10 µM (hERG potassium channel; Mean % hERG Inhibition) was 63.9%, the inhibition at 30 µM (hERG potassium channel; Mean % hERG Inhibition) was 91.3% and the “activity in the hERG assay” value [2] was “single digit micromolar activity”. For the same molecule, the IC50 [2] was 6280 nM and 6300 nM, the “fold less hERG activity than Compound E” value ([2]; human) was 10-100 fold and the “number of targets with ≥75% inhibition” value (off-targets (Panlabs)) was 3. The “number of targets with greater than 75% inhibition” value (off-targets (Panlabs); subset of 30 Panlab assays) was 3, the GI50 (MKPL1) was 1.5 nM and the “initial loss in weight” value [4] was “approximately 20%”. The “tolerability” value [4] was “well tolerated”, the “Average LSU (×1000)” value ([3]; 1 μM) was 4.7 LSU (×1000) and the “Average LSU (×1000)” value ([3]; 3 μM) was 6.4 LSU (×1000). For the same molecule, the “Average LSU (×1000)” value ([3]; 10 μM) was 7.0 LSU (×1000), the “Average LSU (×1000)” value ([3]; 30 μM) was 16.6 LSU (×1000) and the “solubility in the TurboSol assay” value [3] was “slightly insoluble at 30 μM concentrations”. The “% inhibition, Panlab sodium channel assay” value (sodium channel) was 65% and the GI50 (HEL) was > 1000 nM.

For `C[C@]12CC=C3C=C4CC[C@@H](O)C[C@]45CC[C@]3(O5)[C@@H]1CC[C@@H]2c1ccc2ccncc2c1` [Compound A, (3S,3aR,9R,10aR,12aS,12bR)-3-(isoquinolin-7-yl)-3a-methyl-1,2,3,3a,4,7,8,9,10,11,12,12b-dodecahydro-10a,12a-epoxybenzo[4,5]cyclohepta[1,2-e]inden-9-ol], the “ratio of red (CDK8 W105M) to green” value [1] was “dose-dependently shifted the ratio of red to green cells”, the IC50 (CDK8; [5]) was 9.9 nM and the IC50 (CDK8; [6]) was 10.6 nM and 9.3 nM. The inhibition at 10 µM (hERG potassium channel; [7]) was 17.6%, the inhibition at 1 µM (hERG potassium channel; Mean % hERG Inhibition) was 4% and the inhibition at 3 µM (hERG potassium channel; Mean % hERG Inhibition) was 9%. For the same molecule, the inhibition at 10 µM (hERG potassium channel; Mean % hERG Inhibition) was 19.6%, the inhibition at 30 µM (hERG potassium channel; Mean % hERG Inhibition) was 43.7% and the IC50 [2] was > 30000 nM. For the same molecule, the “Mean % hERG Inhibition” value ([2]; human, 3 µM) was 9.2%, the “number of targets with ≥75% inhibition” value (off-targets (Panlabs)) was 0 and the “number of targets with greater than 50% inhibition” value (off-targets (Panlabs); over 100 Panlab assays) was 8. The “initial loss in weight” value [4] was “approximately 15%”, the “tolerability” value [4] was “well tolerated” and the “Average LSU (×1000)” value ([3]; 1 μM) was 5.8 LSU (×1000). The “Average LSU (×1000)” value ([3]; 3 μM) was 5.1 LSU (×1000), the “Average LSU (×1000)” value ([3]; 10 μM) was 9.0 LSU (×1000) and the “Average LSU (×1000)” value ([3]; 30 μM) was 41.0 LSU (×1000). For the same molecule, the “solubility in the TurboSol assay” value [3] was “slightly insoluble at concentrations of 10 μM and 30 μM” and the GI50 (HEL) was > 1000 nM.

In the case of `C[C@]12CC=C3C=C4CC[C@@H](N5CC(N)C5)C[C@]45CC[C@]3(O5)[C@@H]1CC[C@@H]2c1ccc2ccncc2c1` [Compound C], the “ratio of red (CDK8 W105M) to green” value [1] is reported as “dose-dependently shifted the ratio of red to green cells”, the IC50 (CDK8; [5]) is reported as 9.5 nM and the IC50 (CDK8; [6]) is reported as 8.9 nM and 10.2 nM. For the same molecule, the inhibition at 3 µM (hERG potassium channel; [7]) was 12.7%, the inhibition at 10 µM (hERG potassium channel; [7]) was 45.8% and the inhibition at 30 µM (hERG potassium channel; [7]) was 66.9%. The inhibition at 1 µM (hERG potassium channel; Mean % hERG Inhibition) was 5.8%, the inhibition at 3 µM (hERG potassium channel; Mean % hERG Inhibition) was 17.1% and the inhibition at 10 µM (hERG potassium channel; Mean % hERG Inhibition) was 49.8%. The inhibition at 30 µM (hERG potassium channel; Mean % hERG Inhibition) was 75.5%, the IC50 [2] was 10900 nM and the “number of targets with ≥75% inhibition” value (off-targets (Panlabs)) was 4. For the same molecule, the “number of targets with greater than 75% inhibition” value (off-targets (Panlabs); subset of 30 Panlab assays) was 4, the “Average LSU (×1000)” value ([3]; 1 μM) was 2.8 LSU (×1000) and the “Average LSU (×1000)” value ([3]; 3 μM) was 3.5 LSU (×1000). The “Average LSU (×1000)” value ([3]; 10 μM) was 4.9 LSU (×1000), the “Average LSU (×1000)” value ([3]; 30 μM) was 13.0 LSU (×1000) and the “solubility in the TurboSol assay” value [3] was “slightly insoluble at 30 μM concentrations”. The “% inhibition, Panlab sodium channel assay” value (sodium channel) was 66% and the GI50 (HEL) was > 1000 nM.

Source: patent US20180298024A1, “CORTISTATIN ANALOGS AND USES THEREOF” (President and Fellows of Harvard College, priority 2015, published 2018)
